What was measured:
[1] = molecular target: Tsr (thiostrepton resistance methyltransferase) (Streptomyces azureus, UniProt P18644); experiment: isothermal titration calorimetry, single-set-of-sites fit; assay type: binding
[2] = molecular target: Tsr (thiostrepton resistance methyltransferase) (Streptomyces azureus, UniProt P18644, N129A); experiment: biochemical; assay type: binding
[3] = molecular target: Tsr (thiostrepton resistance methyltransferase) (Streptomyces azureus, UniProt P18644, R135A); experiment: biochemical; assay type: binding
[4] = molecular target: Tsr (thiostrepton resistance methyltransferase) (Streptomyces azureus, UniProt P18644, R165A); experiment: biochemical; assay type: binding
[5] = molecular target: Tsr (thiostrepton resistance methyltransferase) (Streptomyces azureus, UniProt P18644, R165K); experiment: biochemical
[6] = molecular target: Tsr (thiostrepton resistance methyltransferase) (Streptomyces azureus, UniProt P18644, N129D); experiment: biochemical
[7] = molecular target: Tsr (thiostrepton resistance methyltransferase) (Streptomyces azureus, UniProt P18644, R135K); experiment: biochemical

| Compound | Kd [1] | Kd [2] | Kd [3] | Kd [4] | Kd [5] | Kd [6] | Kd [7] |
| --- | --- | --- | --- | --- | --- | --- | --- |
| Nc1ncnc2c1ncn2[C@@H]1O[C@H](CSCC[C@H](N)C(=O)O)[C@@H](O)[C@H]1O [SAH, S-adenosyl-L-homocysteine] | 24.4 µM | 16.4 µM | 11 µM | 20.5 µM | – | – | – |
| C[S+](CC[C@H](N)C(=O)O)C[C@H]1O[C@@H](n2cnc3c(N)ncnc32)[C@H](O)[C@@H]1O (stereo partly drawn) [SAM, S-adenosyl-L-methionine] | 107 µM | 493 µM | 614 µM | 189 µM | 97.1 µM | 411 µM | 142 µM |

Reference: article PMC4661090 (FEBS letters, 2015)
